Key:
[1] = tested on: COLO205 colon adenocarcinoma cells (B-Raf V600E mutation); experiment: COLO205 cell growth inhibition (ATPlite); type: cell-based; details: Homo sapiens, COLO 205, 72 h, 3 days
Description: Compounds are assessed in a variety of cell based assays.
On day 1, cells are counted, then centrifuged in a conical tube for 5 minutes at 1000 rpm.
On day 2, compound at a maximum concentration of 5 mM is serially diluted 1:3 (e.g. 10 μL with 30 μL dimethyl sulfoxide) for a total of 8 point titration with DMSO as a control. A 1 μL aliquot of each dilution point and control is added to 249 μL growth media and 50 μL is added to a well containing cells, providing 10 μM compound at the maximum concentration point. The cells are incubated for 3 days at 37° C. in 5% CO2.
ATPlite is added 25 μL to each well, shake for 2 minutes, and the cells are incubated at room temperature for 10 minutes, then luminescence is read on Safire reader. The measured luminescence correlates directly with cell number, such that the reading as a function of compound concentration is used to determine the IC50 value.

B-Raf V600E = B-Raf V600E (Homo sapiens (Human), UniProt P15056, V600E); experiment: B-Raf V600E kinase biochemical activity assay (AlphaScreen, biotin-MEK1 substrate); details: 100 μM ATP
Description: Assays for biochemical and cell based activity are known in the art, for example, as described in PCT publication WO 2007/002433, the disclosure of which is hereby incorporated by reference as it relates to such assays. For example, the biochemical activity IC50 values are determined with respect to inhibition of B-Raf V600E kinase activity or p-Erk kinase activity, where inhibition of phosphorylation of a peptide substrate is measured as a function of compound concentration. Compounds to be tested are diluted in dimethyl sulfoxide to a concentration of 0.1 mM. These are serially diluted 15 μL into 30 μL of dimethyl sulfoxide seven times in 96 well plates for a total of 8 dilution points, and for each dilution point 1 μL is added to a well of an assay plate. Plates are prepared such that each well in a 384 well plate contains 1 μL of compound in 10 μL volume with 0.1 ng Raf enzyme (i.e. any of B-Raf, c-Raf-1 or B-Raf V600E, Upstate Biotechnology or prepared by methods known to one of skill in the art), 50 mM HEPES, pH 7.0, 50 mM NaCl, 2 mM MgCl2, 1 mM MnCl2, 0.01% Tween-20, 1 mM DTT, and 100 nM biotin-MEK1 as substrate. The reaction is started with addition of 10 μL of 200 μM ATP (i.e. final 100 μM ATP). After incubation of the kinase reaction for 45 minutes at room temperature, 5 μL/well of Stop Solution is added (25 mM Hepes pH 7.5, 100 mM EDTA, 0.01% BSA with donor beads (Streptavidin coated beads, Perkin Elmer), acceptor beads (Protein A coated, Perkin Elmer), and anti phosphor MEK1/2 antibody (CellSignal), each at final concentration 10 μg/mL). The plates are incubated for 3 hours at room temperature and read on Envision reader (Perkin Elmer). Phosphorylation of Mek1 results in binding of the anti-phosphor-MEK1/2antibody and association of the donor and acceptor beads such that signal correlates with kinase activity. The signal vs. compound concentration is used to determine the IC50.

Sequence of B-Raf V600E (P15056 whole entry V600E): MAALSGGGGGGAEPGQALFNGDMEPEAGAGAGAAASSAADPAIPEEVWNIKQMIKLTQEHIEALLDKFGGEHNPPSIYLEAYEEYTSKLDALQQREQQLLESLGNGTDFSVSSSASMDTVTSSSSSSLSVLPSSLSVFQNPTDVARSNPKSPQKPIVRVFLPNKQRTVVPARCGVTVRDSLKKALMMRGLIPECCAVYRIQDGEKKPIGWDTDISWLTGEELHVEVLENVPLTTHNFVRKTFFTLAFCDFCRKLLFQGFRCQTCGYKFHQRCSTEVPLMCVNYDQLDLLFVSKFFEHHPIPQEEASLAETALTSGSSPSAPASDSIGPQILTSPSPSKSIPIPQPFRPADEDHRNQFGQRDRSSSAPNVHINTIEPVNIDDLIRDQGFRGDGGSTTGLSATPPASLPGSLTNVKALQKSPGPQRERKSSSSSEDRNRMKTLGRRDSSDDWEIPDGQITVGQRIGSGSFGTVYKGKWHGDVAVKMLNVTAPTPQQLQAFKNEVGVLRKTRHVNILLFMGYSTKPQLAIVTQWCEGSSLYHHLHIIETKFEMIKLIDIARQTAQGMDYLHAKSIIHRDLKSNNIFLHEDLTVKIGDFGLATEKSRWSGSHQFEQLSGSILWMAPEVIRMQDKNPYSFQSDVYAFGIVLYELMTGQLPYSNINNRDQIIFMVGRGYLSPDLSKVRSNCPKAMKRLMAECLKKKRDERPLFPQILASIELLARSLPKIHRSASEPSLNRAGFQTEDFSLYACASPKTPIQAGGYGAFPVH

Row | Compound | IC50 [1] | IC50 (B-Raf V600E)
1 | O=C(c1c(F)ccc(NS(=O)(=O)N2CCCC2)c1F)c1c[nH]c2ncc(F)c(NCC3CC3)c12 [Compound P-0016, N-[3-[4-(cyclopropylmethylamino)-5-fluoro-1H-pyrrolo[2,3-b]pyridine-3-carbonyl]-2,4-difluoro-phenyl]pyrrolidine-1-sulfonamide] | < 1 µM | < 0.1 µM
2 | COCCS(=O)(=O)Nc1cccc(C(=O)c2c[nH]c3ncc(-c4cnc(OC)nc4)cc23)c1F [Compound P-0065, N-[2-fluoro-3-[5-(2-methoxypyrimidin-5-yl)-1H-pyrrolo[2,3-b]pyridine-3-carbonyl]phenyl]-2-methoxy-ethanesulfonamide] | > 1 µM | < 0.1 µM
3 | CC(C)CN(C)S(=O)(=O)Nc1cccc(C(=O)c2c[nH]c3ncc(I)cc23)c1F [Compound P-0070, 3-[2-fluoro-3-[[isobutyl(methyl)sulfamoyl]amino]benzoyl]-5-iodo-1H-pyrrolo[2,3-b]pyridine] | > 1 µM | 
4 | CC(C)NS(=O)(=O)Nc1cccc(C(=O)c2c[nH]c3ncc(I)cc23)c1F [Compound P-0071, [2-fluoro-3-(isopropylsulfamoylamino)phenyl]-(5-iodo-1H-pyrrolo[2,3-b]pyridin-3-yl)methanone] | > 1 µM | > 0.1 µM
5 | COc1ncc(-c2cnc3[nH]cc(C(=O)c4cccc(NS(=O)(=O)N(C)CC(C)C)c4F)c3c2)cn1 [Compound P-0072, 3-[2-fluoro-3-[[isobutyl(methyl)sulfamoyl]amino]benzoyl]-5-(2-methoxypyrimidin-5-yl)-1H-pyrrolo[2,3-b]pyridine] | > 1 µM | > 0.1 µM
6 | COCCN(C)S(=O)(=O)Nc1cccc(C(=O)c2c[nH]c3ncc(-c4cnc(OC)nc4)cc23)c1F [Compound P-0073, 3-[2-fluoro-3-[[2-methoxyethyl(methyl)sulfamoyl]amino]benzoyl]-5-(2-methoxypyrimidin-5-yl)-1H-pyrrolo[2,3-b]pyridine] | > 1 µM | > 0.1 µM
7 | COc1ncc(-c2cnc3[nH]cc(C(=O)c4cccc(NS(=O)(=O)N5CCCC5C)c4F)c3c2)cn1 (stereo not shown) [Compound P-0074, N-[2-fluoro-3-[5-(2-methoxypyrimidin-5-yl)-1H-pyrrolo[2,3-b]pyridine-3-carbonyl]phenyl]-2-methyl-pyrrolidine-1-sulfonamide] | > 1 µM | > 0.1 µM
8 | CCN(C)S(=O)(=O)Nc1cccc(C(=O)c2c[nH]c3ncc(-c4ccc(N(C)C)nc4)cc23)c1F [Compound P-0076, 5-[6-(dimethylamino)-3-pyridyl]-3-[3-[[ethyl(methyl)sulfamoyl]amino]-2-fluoro-benzoyl]-1H-pyrrolo[2,3-b]pyridine] | < 1 µM | < 0.1 µM
9 | CCC(C)S(=O)(=O)Nc1cccc(C(=O)c2c[nH]c3ncc(-c4cnc(C5CC5)nc4)cc23)c1F (stereo not shown) [Compound P-0228, N-[3-[5-(2-cyclopropylpyrimidin-5-yl)-1H-pyrrolo[2,3-b]pyridine-3-carbonyl]-2-fluoro-phenyl]butane-2-sulfonamide] | < 1 µM | 
10 | CN(C)S(=O)(=O)Nc1ccc(F)c(C(=O)c2c[nH]c3ncc(-c4ccc(C5(C#N)CC5)cc4)cc23)c1F [Compound P-0237, 5-[4-(1-cyanocyclopropyl)phenyl]-3-[3-(dimethylsulfamoylamino)-2,6-difluoro-benzoyl]-1H-pyrrolo[2,3-b]pyridine] | < 1 µM | 
11 | CCN(C)S(=O)(=O)Nc1ccc(F)c(C(=O)c2c[nH]c3ncc(-c4ccc(C5(C#N)CC5)cc4)cc23)c1F [Compound P-0239, 5-[4-(1-cyanocyclopropyl)phenyl]-3-[3-[[ethyl(methyl)sulfamoyl]amino]-2,6-difluoro-benzoyl]-1H-pyrrolo[2,3-b]pyridine] | < 1 µM | 
12 | N#CC1(c2ccc(-c3cnc4[nH]cc(C(=O)c5c(F)ccc(NS(=O)(=O)N6CCCC6)c5F)c4c3)cc2)CC1 [Compound P-0248, N-[3-[5-[4-(1-cyanocyclopropyl)phenyl]-1H-pyrrolo[2,3-b]pyridine-3-carbonyl]-2,4-difluoro-phenyl]pyrrolidine-1-sulfonamide] | < 1 µM | 
13 | CNC1CCN(S(=O)(=O)Nc2cccc(C(=O)c3c[nH]c4ncc(-c5cnc(C6CC6)nc5)cc34)c2F)C1 (stereo not shown) [Compound P-0272, N-[3-[5-(2-cyclopropylpyrimidin-5-yl)-1H-pyrrolo[2,3-b]pyridine-3-carbonyl]-2-fluoro-phenyl]-3-(methylamino)pyrrolidine-1-sulfonamide] |  | > 0.1 µM
14 | O=C(c1c(F)ccc(NS(=O)(=O)N2CCCC2)c1F)c1c[nH]c2ncc(-c3ccncc3)cc12 [Compound P-0273, N-[2,4-difluoro-3-[5-(4-pyridyl)-1H-pyrrolo[2,3-b]pyridine-3-carbonyl]phenyl]pyrrolidine-1-sulfonamide] | < 1 µM | 
15 | Nc1nccc(-c2cnc3[nH]cc(C(=O)c4c(F)ccc(NS(=O)(=O)N5CCCC5)c4F)c3c2)n1 [Compound P-0280, N-[3-[5-(2-aminopyrimidin-4-yl)-1H-pyrrolo[2,3-b]pyridine-3-carbonyl]-2,4-difluoro-phenyl]pyrrolidine-1-sulfonamide] | < 1 µM | 
16 | O=C(c1c(F)ccc(NS(=O)(=O)N2CCCC2)c1F)c1c[nH]c2ncc(-c3ccnc(N4CCOCC4)c3)cc12 [Compound P-0284, N-[2,4-difluoro-3-[5-(2-morpholino-4-pyridyl)-1H-pyrrolo[2,3-b]pyridine-3-carbonyl]phenyl]pyrrolidine-1-sulfonamide] | < 1 µM | 
17 | O=C(c1c(F)ccc(NS(=O)(=O)N2CCCC2)c1F)c1c[nH]c2ncc(-c3ccnc(OC4CCC4)c3)cc12 [Compound P-0286, N-[3-[5-[2-(cyclobutoxy)-4-pyridyl]-1H-pyrrolo[2,3-b]pyridine-3-carbonyl]-2,4-difluoro-phenyl]pyrrolidine-1-sulfonamide] |  | < 0.1 µM
18 | COC(=O)C(C)S(=O)(=O)Nc1cccc(C(=O)c2c[nH]c3ncc(-c4cnc(C5CC5)nc4)cc23)c1F (stereo not shown) [Compound P-0291, methyl 2-[[3-[5-(2-cyclopropylpyrimidin-5-yl)-1H-pyrrolo[2,3-b]pyridine-3-carbonyl]-2-fluoro-phenyl]sulfamoyl]propanoate] |  | > 0.1 µM
19 | CCN(C)S(=O)(=O)Nc1ccc(F)c(C(=O)c2c[nH]c3ncc(-c4cnc(N(C)C)nc4)cc23)c1F [Compound P-0292, 5-[2-(dimethylamino)pyrimidin-5-yl]-3-[3-[[ethyl(methyl)sulfamoyl]amino]-2,6-difluoro-benzoyl]-1H-pyrrolo[2,3-b]pyridine] | < 1 µM | 
20 | O=C(c1c(F)ccc(NS(=O)(=O)N2CCCC2)c1F)c1c[nH]c2ncc(-c3cc(C(F)(F)F)ncn3)cc12 [Compound P-0294, N-[2,4-difluoro-3-[5-[6-(trifluoromethyl)pyrimidin-4-yl]-1H-pyrrolo[2,3-b]pyridine-3-carbonyl]phenyl]pyrrolidine-1-sulfonamide] |  | < 0.1 µM
21 | CCN(C)S(=O)(=O)Nc1ccc(F)c(C(=O)c2c[nH]c3ncc(-c4cccc(N(C)C)c4)cc23)c1F [Compound P-0302, 5-[3-(dimethylamino)phenyl]-3-[3-[[ethyl(methyl)sulfamoyl]amino]-2,6-difluoro-benzoyl]-1H-pyrrolo[2,3-b]pyridine] |  | < 0.1 µM
22 | CCN(C)S(=O)(=O)Nc1ccc(F)c(C(=O)c2c[nH]c3ncc(-c4ccc(C(=O)NC5CC5)nc4)cc23)c1F [Compound P-0312, N-cyclopropyl-5-[3-[3-[[ethyl(methyl)sulfamoyl]amino]-2,6-difluoro-benzoyl]-1H-pyrrolo[2,3-b]pyridin-5-yl]pyridine-2-carboxamide] |  | < 0.1 µM
23 | CN1CCN(c2cc(-c3cnc4[nH]cc(C(=O)c5c(F)ccc(NS(=O)(=O)N6CCCC6)c5F)c4c3)ncn2)CC1 [Compound P-0319, N-[2,4-difluoro-3-[5-[6-(4-methylpiperazin-1-yl)pyrimidin-4-yl]-1H-pyrrolo[2,3-b]pyridine-3-carbonyl]phenyl]pyrrolidine-1-sulfonamide] |  | < 0.1 µM
24 | C[C@H]1CCN(S(=O)(=O)Nc2ccc(F)c(C(=O)c3c[nH]c4ncc(-c5cnc(C6CC6)nc5)cc34)c2F)C1 [Compound P-0320, (3S)—N-[3-[5-(2-cyclopropylpyrimidin-5-yl)-1H-pyrrolo[2,3-b]pyridine-3-carbonyl]-2,4-difluoro-phenyl]-3-methyl-pyrrolidine-1-sulfonamide] |  | > 0.1 µM
